Source: ChEMBL document CHEMBL3507680, “University of Dundee, Gates Library screen for HepG2 cell viability”

Assay: Human HepG2 cell viability assay in 384 well format
Format: toxicity, cell-based
Set-up: dose 125 nL, time 70.5 hour; cytotoxicity at 70.5 h: concentration not given beside the values
Details: HepG2 cells, read-out: Inhibition

Compound	cytotoxicity at 70.5 h [%]
CC(NCC(=O)N(C)C1CC1)c1ccc(S(C)(=O)=O)c(F)c1 (configuration not stated)	-9.06
O=C(NC1CCN(CC2CC2)C1)c1ccc(C(=O)c2cc[nH]c2)cc1 (configuration not stated)	-9.44
CC(C)c1noc(CS(=O)(=O)CC(=O)NCCOc2ccccc2)n1	-13.7
COCCCNC(=O)COc1ccccc1C(F)(F)F	-5.58
CC(NC(=O)Cn1cccnc1=O)c1ccc(OC(F)(F)F)cc1 (configuration not stated)	-8.28
CC(Sc1nnc(C2CC2)n1CC(N)=O)c1ccc(F)cc1F (configuration not stated)	-4.59
NC(=O)C(NC(=O)c1cc(Cl)c[nH]1)c1ccccc1 (configuration not stated)	-8.05
COc1ccccc1CC(=O)NC(CC(=O)O)c1ccc(C)cc1 (configuration not stated)	-6.19
CC(C)c1noc(CS(=O)(=O)CC(=O)NCC(F)(F)F)n1	-6.46
Cc1nc(CC(=O)N2CCN(C(C)c3ccccc3F)CC2)cs1 (configuration not stated)	-5.6
Cc1ncc(CNC(=O)c2oc3ccccc3c2CN(C)C)s1	-8.45
Cc1cnccc1NC(=O)CCc1ccsc1	-13.1
Cc1ccc(C(=O)NCCNC(=O)N(C)C(C)c2ccccn2)cc1 (configuration not stated)	-2.96
Cc1ccc(=O)n(CC(=O)N2CCCC(c3nc(C)c(C)s3)C2)n1 (configuration not stated)	-5.44
CNc1nc(CNC(=O)Nc2ccccc2OC(C)C)cs1	14
COC(=O)[C@H]1CCCCN1C(=O)c1cccc(-n2cccn2)c1	-4.76
Cc1ccn(-c2ccc(NCc3cccnc3N3CCCCC3)nn2)n1	12.6
Cn1cc(C(=O)N2CCOc3cc(F)ccc32)ccc1=O	-7.98
O=c1[nH]c(N2CC(O)C2)nc2c1cnn2-c1ccccc1	-9.7
COC(=O)C1(C)CCN(C(=O)NCCc2c(C)[nH]c3ccccc23)C1 (configuration not stated)	-3.86
CC(OCC1CC1)C(=O)NCc1ccc(Cn2ccnc2)cc1 (configuration not stated)	-6.63
Cc1noc(C)c1CN1CCCC(CN(C(=O)OC(C)(C)C)C(C)C)C1 (configuration not stated)	-3.37
CCn1c(C)nnc1CN(C)C1CCN(Cc2nccn2C)C1 (configuration not stated)	3.01
CCOc1ccccc1CSc1nnc(CC2CCS(=O)(=O)C2)n1C (configuration not stated)	-11.4

Compound	cytotoxicity at 70.5 h [%]
Cn1c(CC2CCS(=O)(=O)C2)nnc1SCCOc1cccc(Cl)c1 (configuration not stated)	-11.2
O=C(NCc1cccnc1)C1=NN(c2ccccc2)C(=O)CN1	-13.9
COCc1ccc(CNC(=O)C2=NN(c3ccccc3)C(=O)CN2)cc1	-12.2
O=C(NCc1cc[nH]n1)NCC(c1ccco1)N1CCCC1 (configuration not stated)	-13.5
O=C(c1ccn(-c2ccccc2Cl)n1)N1CCSCC1	-14.1
CCS(=O)(=O)NCCNC(=O)c1cc(Cl)c2c(c1)OCCCO2	-9.4
Cc1nn(C)c(N(C)C)c1CNCc1cccc(CN(C)C(C)C)c1	-9.1
CCn1nc(-c2ccccc2F)ccc1=O	-8.76
Cn1cc(CNCCOc2ccc(F)c(F)c2)c(-c2cccnc2)n1	-5.61
Cc1cccc(CNC(CN2CCN(C)CC2)c2ccccc2)c1 (configuration not stated)	10.9
CCN(CC)C(=O)CCNc1cncc(-n2nc(C)cc2C)n1	-1.19
Cc1ccc(C2CSCCN2C(=O)c2ccc(C(N)=O)cc2)o1 (configuration not stated)	-9.63
CC(C)OCCN(Cc1cccc(O)c1)C1CCC(O)CC1 (configuration not stated)	-3.81
CC(=O)N(Cc1ncc(C)o1)C1CCN(Cc2cccc(C#N)c2)C1 (configuration not stated)	-5.2
CC(C)c1csc(C2CCCN(C(=O)c3ncccn3)C2)n1 (configuration not stated)	13
Cc1csc(C2CCCN(C(=O)c3ccc(=O)n(C)n3)C2)n1 (configuration not stated)	-9.44
COc1ccc(CN2CCCCC2CNC(=O)OC(C)(C)C)cc1F (configuration not stated)	-7.89
CCCc1n[nH]c(C2CN(CCS(=O)(=O)CC)CCO2)n1 (configuration not stated)	-7.9
CCCc1n[nH]c(C2CN(CCC(F)(F)F)CCO2)n1 (configuration not stated)	-5.18
CC(C)c1n[nH]c(C2CN(CCCS(C)(=O)=O)CCO2)n1 (configuration not stated)	-4.2
Cc1cc(C(=O)N2CCc3nnc(N)cc3C2)c(C)n1-c1ccccc1	-1.62
O=C(NCCc1ccc(Cl)s1)N1CCS(=O)(=O)CC1	-3.08
O=C(Cc1csc(-c2ccsc2)n1)N1CCN(c2cnccn2)CC1	-10.1
CNC(=O)CN1CCN(C(=O)c2ccn(C)c(=O)c2)CC1	31.2

Compound	cytotoxicity at 70.5 h [%]
Cc1ccc(CNC(=O)NCCCO)cc1	19.3
CCn1cnnc1CNC(=O)c1cc(Cl)c(I)cc1OC	-7.1
Cc1nn(C)c(C)c1CC(=O)NCc1ccnc(N2CCOCC2)c1	-6.63
CCn1cnnc1CNC(=O)c1cc(F)ccc1OC	-6.76
CC(NC(=O)NCCCN(C)S(C)(=O)=O)c1ccc(C#N)cc1 (configuration not stated)	-4.16
CCc1cccc(N2CCC(NC(=O)C3CCCO3)CC2)c1 (configuration not stated)	-3.65
CN(C)c1cccc(C(=O)N2CCC(c3n[nH]c(C4CC4)n3)CC2)c1	-5.06
CC(C)CN1CCN(C(=O)c2ccn(C)c(=O)c2)CC1	-9.05
COCc1nc(C(=O)N2CCCC2c2cc(C)no2)cs1 (configuration not stated)	-7.8
CCc1cccc(N2CCC(NC(=O)C3CCOCC3)CC2)c1	-5.26
CCc1cccc(N2CCC(NC(=O)c3ccoc3C)CC2)c1	19.4
CCc1cccc(N2CCC(NC(=O)C3CCC3)CC2)c1	-6.88
O=C(CCc1cccs1)N1CCCC(n2ccnc2)C1 (configuration not stated)	-5.36
Cc1cc(C)n(C2CN(CC(=O)NC3CCS(=O)(=O)C3)C2)n1 (configuration not stated)	-9.43
COc1ccc(OCCCNCCn2cccn2)cc1	22.8
O=C(CCCNc1ncccn1)N1CCCC(n2ccnc2)C1 (configuration not stated)	-3.12
COc1cc(C(=O)N2CCC(c3n[nH]c(C)n3)CC2)cc(OC)c1C	-3.07
CC1CCN(S(=O)(=O)NCc2ccccc2Cn2cccn2)CC1	14.5
COc1ccc(OC)c(C(O)CNC(=O)Nc2ccc(F)cc2F)c1 (configuration not stated)	-6.18
Cc1nc(CN2CCN(C(=O)CCc3ccco3)CC2)cs1	-5.22
Cc1cnn(C2CCCN(C(=O)c3ccc(-n4ccnc4)cc3)C2)c1 (configuration not stated)	-17.4
c1ncn(CC2CCCN(Cc3noc(C4CC4)n3)C2)n1 (configuration not stated)	-12.6
Cc1cc(C)n(CC2CCCN2C(=O)c2ccc(N(C)C)nn2)n1 (configuration not stated)	-10.8
Cc1cc(C)n(CC2CCCCN2C(=O)c2ccc(C(N)=O)cc2)n1 (configuration not stated)	-12

Compound	cytotoxicity at 70.5 h [%]
Cc1cc(C)n(CC2CCCN2CCC(=O)Nc2cc(C)on2)n1 (configuration not stated)	-7.1
O=C(c1cscn1)N1CCCC(n2cncn2)C1 (configuration not stated)	-8.94
O=C(c1csnn1)N1CCCC(n2cncn2)C1 (configuration not stated)	15.3
CN(C)c1ccc(C(=O)N2CCCC(n3cncn3)C2)nn1 (configuration not stated)	-5.16
Cc1cscc1C(=O)N1CCCC1CC(=O)c1cnn(C)c1 (configuration not stated)	-5.58
Cc1nc(CN2CCCC(Cn3cncn3)C2)no1 (configuration not stated)	15.8
CCCc1nc(CN2CCCC2Cn2cncn2)no1 (configuration not stated)	-6.08
COC(=O)C(c1cc(F)ccc1F)N(C)C(=O)c1ccccn1 (configuration not stated)	-9.53
COCCCNC(=O)N1CCC(CNC(=O)c2cnn(C)c2)CC1	-8.18
CC(C)n1ccc(C(=O)N2CCCC(n3cncn3)C2)n1 (configuration not stated)	-10.6
COc1ccc(OC)c(CNC(=O)N2CCC(n3cncn3)CC2)c1	35
Fc1ccc(OCCCN2CCCC(Cn3cncn3)C2)cc1 (configuration not stated)	-3.77
O=C(NCCNc1cnccn1)N1CCCCCC1	2.18
Cc1cnn(CC(=O)N2CCCN(c3ncccc3C#N)CC2)c1	-1.08
Cc1cc(C)c(CNC(=O)N2CCOC(c3ccccc3)C2)c(=O)[nH]1 (configuration not stated)	-8.25
Cn1cc(CCC(=O)N2CCCN(c3ncccc3C#N)CC2)cn1	35.5
O=C(NCCNc1cnccn1)N1CCN(c2nccs2)CC1	-8.94
Cc1ccccc1CNC(=O)N1CCC(n2cncn2)CC1	-5.36
CC(C)Sc1ncccc1C(=O)NCc1ccc(O)cc1	-2.85
O=C(Cn1cc(-c2ccccc2)cn1)NC(C1CC1)C1CC1	-5.32
N#Cc1ccc(OCCCN2CCOC(Cn3cncn3)C2)cc1 (configuration not stated)	32.1
COc1cc(Cl)ccc1CNC(=O)N1CCC(n2cncn2)CC1	0.114
CCCc1n[nH]c(C2CN(C(=O)CCn3ccccc3=O)CCO2)n1 (configuration not stated)	-2.27
CC(C)c1n[nH]c(C2CN(C(=O)Cn3ccccc3=O)CCO2)n1 (configuration not stated)	-2.65

Compound	cytotoxicity at 70.5 h [%]
CCNC(c1cccnc1)c1ccc(F)cc1F (configuration not stated)	2.45
COc1ccnc(C(=O)N2CCCC(c3noc(C)n3)C2)c1 (configuration not stated)	-12.8
Fc1cccc(-c2nc(CN3CCOC(Cn4cncn4)C3)co2)c1 (configuration not stated)	-15.8
COc1ccc(CCN2CCc3c(nc(C4CC4)n3C)C2)cc1	-2.39
Cc1n[nH]c(C)c1NC(=O)CN1CCc2c(nc(C3CC3)n2C)C1	17.7
CC(C)OCCN1CCN(C(=O)c2cccc(CC#N)c2)CC1	-12
CCN(Cc1ccc2c(c1)OCO2)C(=O)NC(C)Cn1cccn1 (configuration not stated)	-12.9
COCC(O)CN(C)C(=O)NC1CCN(Cc2ccccn2)CC1 (configuration not stated)	-17.1
CC(Cn1ccnc1)NC(=O)NCCc1ccc2c(c1)OCCO2 (configuration not stated)	13.3
CCN(Cc1ccc2c(c1)OCCO2)C(=O)NC(C)Cn1ccnc1 (configuration not stated)	-12.9
COCc1ccccc1CNc1cc(N2CCCC2CO)ncn1 (configuration not stated)	-18.2
O=C1CCc2cc(-c3csc(CCN4CCCC4=O)n3)ccc2N1	-14.6
CC(C)c1cc(NC(=O)CN2CCc3ccccc3C2)on1	-6.95
CC(NC(=O)c1cccs1)C(=O)NCc1ccccc1CN1CCCC1 (configuration not stated)	-2
COc1ncccc1NC(=O)NCC1CCS(=O)(=O)C1 (configuration not stated)	-18.6
CCn1cnnc1CNC(=O)NC(C)c1cccs1 (configuration not stated)	-14.5
CN(Cc1cnn(C)c1)C(=O)NC1CCN(Cc2ccccn2)CC1	-11.3
Cc1ncsc1C(=O)NC1CCN(CCC(N)=O)CC1	-21.4
c1ccc(-n2ccnc2)c(CNCC2CNc3ccnn3C2)c1 (configuration not stated)	-20.8
O=C(Cc1ccc2c(c1)OCCO2)NC1CCN(CC(F)F)CC1	-19.5
CCn1cnnc1CNC(=O)NCC(c1cccs1)N1CCCC1 (configuration not stated)	-14
